Measured values: patent publication US9453014B2, “Cyclic amide derivatives as inhibitors of 11-β-hydroxysteroid dehydrogenase and uses thereof” (CONNEXIOS LIFE SCIENCES PVT. LTD., priority 2011, dated 2016)

Target: T1, human full length HSD11 β 1 (Homo sapiens, UniProt P28845)
T1 construct: transient expression of human full length HSD11 β 1 expression vector; host or cells: CHO cells (transient transfection)
Experiment: In Vitro HSD11β1 Inhibition Assay
Type: cell-based
Details: CHO cells transiently expressing human HSD11β1; 200 nM cortisone+500 uM NADPH overnight; cortisone to cortisol by LC/MS-MS; read-out: 11βHSD1 (IC50)
Procedure: In Vitro HSD11β1 Inhibition Assay:
CHO cells were maintained in Dulbecco's modified Eagle's medium/nutrient mixture F-12 containing 5% fetal bovine serum (v/v) and 2 mM glutamine. Cells were cultured at 37° C. with 5% CO2. For transient expression of human full length HSD11 β 1 expression vector (OriGene Technologies), cells were seeded at a density of 2×10^5 cells/well in a 6-well plate. Transfection was done using Turbofectin8 reagent (OriGene Technologies), according to the protocol provided with the reagent. After 24 hours post-transfection, cells were trypsinized and pooled together before they were re-seeding to 96-well plate at a density of 40000 cells/well. 24 hours after re-seeding, cells were incubated with 200 nM cortisone+500 uM NADPH (or along with small molecule inhibitors) overnight. The enzymatic activity or inhibition of enzyme activity was measured by estimating the conversion of cortisone to cortisol by LC/MS-MS method. The IC50 in nM was calculated from an 8 point log scale of concentration versus inhibition.

T1 sequence (P28845 whole entry): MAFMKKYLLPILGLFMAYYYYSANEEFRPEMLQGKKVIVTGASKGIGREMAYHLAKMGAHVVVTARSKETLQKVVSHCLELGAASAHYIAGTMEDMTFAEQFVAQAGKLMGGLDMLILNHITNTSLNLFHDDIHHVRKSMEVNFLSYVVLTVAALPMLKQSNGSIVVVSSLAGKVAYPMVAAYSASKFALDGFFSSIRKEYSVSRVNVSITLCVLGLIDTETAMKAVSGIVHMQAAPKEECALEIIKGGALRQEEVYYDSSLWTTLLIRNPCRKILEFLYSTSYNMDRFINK

| Structure (SMILES) | IC50 |
| --- | --- |
| Cn1cc(CCC(=O)N2CCO[C@@H]3CCCC[C@H]32)c2ccccc21 (relative stereo) [Compound 63, 3-(1-methyl-1H-indol-3-yl)-1-[(trans-4a,8a)-octahydro-4H-1,4-benzoxazin-4-yl]propan-1-one] | > 250 nM |
| Cc1cccc2c1c(CCC(=O)N1CCO[C@@H]3CCCC[C@@H]31)cn2C (relative stereo) [Compound 66, 3-(1,4-dimethyl-1H-indol-3-yl)-1-[cis-(4a,8a)-octahydro-4H-1,4-benzoxazin-4-yl]propan-1-one] | < 100 nM |
| O=C(CCc1nc2ccccc2s1)N1CCO[C@@H]2CCCC[C@H]21 (relative stereo) [Example 79, 3-(1,3-benzothiazol-2-yl)-1-[trans-(4a,8a)-octahydro-4H-1,4-benzoxazin-4-yl]propan-1-one] | > 250 nM |
| O=C(CCc1c[nH]c2ccccc12)N1CCCC2CCCCC21 (single isomer, unassigned) [Compound 52, 3-(1H-indol-3-yl)-1-(octahydroquinolin-1(2H)-yl)propan-1-one] | > 250 nM |
| CC12CCCCC1N(C(=O)CCc1c[nH]c3ccccc13)CCC2 (single isomer, unassigned) [Compound 55, 3-(1H-indol-3-yl)-1-(4a-methyloctahydroquinolin-1(2H)-yl)propan-1-one] | < 100 nM |
| CC12CCCCC1N(C(=O)CCc1c[nH]c3ccccc13)CCC2 (single isomer, unassigned) [Compound 56, 3-(1H-indol-3-yl)-1-(4a-methyloctahydroquinolin-1(2H)-yl)propan-1-one] | 150 to 200 nM |
| Cc1cccc2c1c(CCC(=O)N1CCO[C@@H]3CCCC[C@H]31)cn2C (single isomer, unassigned) [Compound 62, 3-(1,4-dimethyl-1H-indol-3-yl)-1-[(trans-4a,8a)-octahydro-4H-1,4-benzoxazin-4-yl]propan-1-one] | > 250 nM |
| Cc1cccc2c1c(CCC(=O)N1CCO[C@@H]3CCCC[C@H]31)cn2C (single isomer, unassigned) [Compound 65, 3-(1,4-dimethyl-1H-Indol-3-yl)-1-[trans-(4a,8a)-octahydro-4H-1,4-benzoxazin-4-yl]propan-1-one] | > 250 nM |

Continued, values first:

| IC50 | Structure (SMILES) |
| --- | --- |
| < 100 nM | O=C(CCc1c[nH]c2ccccc12)N1CCCC2CCCCC21 (single isomer, unassigned) [Compound 53, 3-(1H-indol-3-yl)-1-(octahydroquinolin-1(2H)-yl)propan-1-one] |
| < 100 nM | CC(CC(=O)N1CCCC2C(C(=O)O)CCCC21)c1c[nH]c2cccc(C3CC3)c12 (single isomer, unassigned) [Compound 195, 1-[3-(4-cyclopropyl-1H-indol-3-yl)butanoyl]decahydroquinoline-5-carboxylic acid] |
| < 100 nM | CC(CC(=O)N1CCCC2C(C(=O)O)CCCC21)c1c[nH]c2cccc(C3CC3)c12 (single isomer, unassigned) [Compound 196, 1-[3-(4-cyclopropyl-1H-indol-3-yl)butanoyl]decahydroquinoline-5-carboxylic acid] |
| 100 to 150 nM | CC(CC(=O)N1CCCC2C(C(=O)O)CCCC21)c1c[nH]c2cccc(C3CC3)c12 (single isomer, unassigned) [Compound 198, 1-[3-(4-cyclopropyl-1H-indol-3-yl)butanoyl]decahydroquinoline-5-carboxylic acid] |
| < 100 nM | CC(CC(=O)N1CCC[C@H]2[C@H](C(=O)O)CCC[C@@H]21)c1c[nH]c2cccc(C3CC3)c12 (single isomer, unassigned) [Compound 199, 1-[3-(4-cyclopropyl-1H-indol-3-yl)butanoyl]decahydroquinoline-5-carboxylic acid] |
| < 100 nM | CC(CC(=O)N1CCCC2C(C(=O)O)CCCC21)c1c[nH]c2cccc(C3CC3)c12 (single isomer, unassigned) [Compound 200, 1-[3-(4-cyclopropyl-1H-Indol-3-yl)butanoyl]decahydroquinoline-5-carboxylic acid] |
